pIC50, pKi: −log10 of the molar value.
How the values were obtained:
[1] = molecular target: T1, Corticotropin-releasing factor receptor 1 (Homo sapiens, UniProt P34998); assay: Binding affinity for recombinant human CRF1 receptor
T1 sequence (P34998 whole entry): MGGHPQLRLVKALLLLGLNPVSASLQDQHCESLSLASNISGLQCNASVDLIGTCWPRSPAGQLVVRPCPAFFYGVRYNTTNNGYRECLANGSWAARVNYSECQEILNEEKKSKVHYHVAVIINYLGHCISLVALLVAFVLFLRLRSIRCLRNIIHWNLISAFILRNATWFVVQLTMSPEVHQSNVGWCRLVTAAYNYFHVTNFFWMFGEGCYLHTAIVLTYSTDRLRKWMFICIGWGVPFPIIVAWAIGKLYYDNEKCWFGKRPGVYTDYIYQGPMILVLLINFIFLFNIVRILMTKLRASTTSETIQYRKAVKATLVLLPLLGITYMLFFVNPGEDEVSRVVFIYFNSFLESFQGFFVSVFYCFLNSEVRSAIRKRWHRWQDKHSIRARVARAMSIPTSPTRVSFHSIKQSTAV

[2] = molecular target: T1, Corticotropin-releasing factor receptor 1; assay: Inhibition of CRF-stimulated cAMP production in cells expressing CRF1 receptor

pKi [1]	pIC50 [2]	SMILES
8.49		CCCN(CCOC)c1cc(C)nc2c(-c3ncc(Cl)cc3Cl)c(C)nn12
8.92		CCCCN(CCC)c1cc(C)nc2c(-c3ncc(C(F)(F)F)cc3Cl)c(C)nn12
8.17		CCCN(CCC)c1cc(C)nc2c(-c3ncc(Cl)cc3C)c(C)nn12
7.00		CCCN(CCC)c1cc(C)nc2c(-c3ncc(N=O)cc3C)c(C)nn12
< 5.00		CCCN(CCC)c1cc(C)nc2c(-c3ncc(C)cc3N=O)c(C)nn12
7.40		CCCN(CCC)c1cc(C)nc2c(-c3ncc(NC)cc3C)c(C)nn12
6.28		CCCN(CCC)c1cc(C)nc2c(-c3ncc(O)cc3C)c(C)nn12
8.18		CCCN(CCC)c1cc(C)nc2c(-c3ncc(I)cc3C)c(C)nn12
7.85		CCCN(CCC)c1cc(C)nc2c(-c3ncc(C)cc3[N+](=O)[O-])c(C)nn12
7.07		CCCN(CCC)c1cc(C)nc2c(-c3ncc(N)cc3C)c(C)nn12
8.00		CCCN(CCC)c1cc(C)nc2c(-c3ncc(OC)cc3C)c(C)nn12
< 5.00		CCCN(CCC)c1cc(C)nc2c(-c3ncc(C)cc3O)c(C)nn12
7.64		CCCN(CCC)c1cc(C)nc2c(-c3ncc(C)cc3N(C)C)c(C)nn12
8.96		CCCCN(CCCC)c1cc(C)nc2c(-c3ncc(C(F)(F)F)cc3Cl)c(C)nn12
8.04	6.74	CCCN(CCC)c1cc(C)nc2c(-c3ncc([N+](=O)[O-])cc3C)c(C)nn12
7.60		CCCN(CCC)c1cc(C)nc2c(-c3ncc(C)cc3OC)c(C)nn12

pKi [1]	pIC50 [2]	SMILES
8.00	6.82	CCCN(CCC)c1cc(C)nc2c(-c3ncc(N(C)C)cc3C)c(C)nn12
8.49	7.31	CCCN(CCC)c1cc(C)nc2c(-c3ncc(Cl)cc3Cl)c(C)nn12
7.89		CCCN(CCC)c1cc(C)nc2c(-c3ncc(N(CC)CC)cc3C)c(C)nn12
7.89		CCCN(CCC)c1cc(C)nc2c(-c3ncc(C)cc3NC)c(C)nn12
7.40		CCCN(CCC)c1cc(C)nc2c(-c3ncc(C)cc3N)c(C)nn12
7.72		CCCN(CCC)c1cc(C)nc2c(-c3ncc(F)cc3C)c(C)nn12
7.06		CCCN(CCC)c1cc(C)nc2c(-c3ccc(Cl)cn3)c(C)nn12
8.77		CCCN(Cc1ccccc1)c1cc(C)nc2c(-c3ncc(C(F)(F)F)cc3Cl)c(C)nn12
9.10		CCCN(CC1CC1)c1cc(C)nc2c(-c3ncc(C(F)(F)F)cc3Cl)c(C)nn12
7.11		COCCN(CCOC)c1cc(C)nc2c(-c3ncc(Cl)cc3Cl)c(C)nn12
6.96		CCCN(CCC)c1cc(C)nc2c(-c3ncccc3C)c(C)nn12
8.92		CCCN(CCC)c1cc(C)nc2c(-c3ncc(C(F)(F)F)cc3Cl)c(C)nn12
8.21		CCCN(CCC)c1cc(C)nc2c(-c3ncc(C)cc3Cl)c(C)nn12
7.77		CCCN(CCC)c1cc(C)nc2c(-c3ncc(N4CCCCC4)cc3C)c(C)nn12
8.41		CCCN(CC1CC1)c1cc(C)nc2c(-c3ncc(Cl)cc3Cl)c(C)nn12

Reference: ChEMBL document CHEMBL1137119, “Design and synthesis of 3-(2-pyridyl)pyrazolo[1,5-a]pyrimidines as potent CRF1 receptor antagonists” (Bioorg Med Chem Lett, 2004)
